Data: US10428083B2, “Heterocyclylmethyl-thienouracile as antagonists of the adenosine-A2B-receptor” (BAYER PHARMA AKTIENGESELLSCHAFT, priority 2015, dated 2019)

Molecular target: human adenosine A2b receptor (Homo sapiens (Human), UniProt P29275)
Assay: Cellular in vitro reporter gene test for A2b receptor activity (CHO-K1, CRE-luciferase, NECA stimulation)
Format: cell-based
Conditions: recombinant CHO-K1 cell line, CRE-luciferase reporter, antagonism of EC50 concentration of NECA; in some cases means of several determinations, rounded to two significant figures; read-out: A2b receptor IC50
In short: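 CHO-K1 cells with CRE-driven luciferase; antagonists co-incubated with NECA at its EC50, determined in a pre-experiment on each test day. Luciferase read by luminescence 3 h after NECA addition.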

Sequence of human adenosine A2b receptor (P29275 whole entry): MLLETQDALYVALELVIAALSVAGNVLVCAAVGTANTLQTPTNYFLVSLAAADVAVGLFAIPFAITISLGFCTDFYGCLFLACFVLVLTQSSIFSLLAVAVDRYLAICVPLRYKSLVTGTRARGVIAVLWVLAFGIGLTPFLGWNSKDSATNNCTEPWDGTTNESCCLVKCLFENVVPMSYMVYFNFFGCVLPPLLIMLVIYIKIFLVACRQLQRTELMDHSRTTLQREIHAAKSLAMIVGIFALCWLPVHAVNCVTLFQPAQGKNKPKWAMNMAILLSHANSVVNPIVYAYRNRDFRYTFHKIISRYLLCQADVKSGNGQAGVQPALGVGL

Row | SMILES | IC50 [nM]
1 | COCCn1c(=O)n(C(C)C(F)(F)F)c(=O)c2c(C)c(CN3CCNC3=NC#N)sc21 (single isomer, unassigned) [Example 511, [1-{[1-(2-Methoxyethyl)-5-methyl-2,4-dioxo-3-(1,1,1-trifluoropropan-2-yl)-1,2,3,4-tetrahydrothieno[2,3-d]pyrimidin-6-yl]methyl}imidazolidin-2-ylidene]cyanamide] | 110
2 | COCCn1c(=O)c2c(C)c(Cn3[nH]ccc3=O)sc2n(CCOC)c1=O [Example 288, 1,3-Bis(2-methoxyethyl)-5-methyl-6-[(5-oxo-2,5-dihydro-1H-pyrazol-1-yl)methyl]thieno[2,3-d]pyrimidine-2,4(1H,3H)-dione] | 140
3 | CCn1c(=O)c2c(C)c(CN3CCN(C(=O)OC(C)(C)C)S3(=O)=O)sc2n(CCC(F)(F)F)c1=O [Example 26, tert-Butyl 5-{[3-ethyl-5-methyl-2,4-dioxo-1-(3,3,3-trifluoropropyl)-1,2,3,4-tetrahydrothieno[2,3-d]pyrimidin-6-yl]methyl}-1,2,5-thiadiazolidine-2-carboxylate 1,1-dioxide] | 11
4 | COCCn1c(=O)n(C(C)C)c(=O)c2c(C)c(Cn3nc[nH]c3=O)sc21 [Example 254, 3-Isopropyl-1-(2-methoxyethyl)-5-methyl-6-[(5-oxo-4,5-dihydro-1H-1,2,4-triazol-1-yl)methyl]thieno[2,3-d]pyrimidine-2,4(1H,3H)-dione] | 34
5 | CCn1c(=O)c2c(C)c(CN3CCCC3=O)sc2n(CCC(F)(F)F)c1=O [Example 4, 3-Ethyl-5-methyl-6-[(2-oxopyrrolidin-1-yl)methyl]-1-(3,3,3-trifluoropropyl)thieno[2,3-d]pyrimidine-2,4(1H,3H)-dione] | 5.2
6 | C=C(Cn1c(=O)n(CC)c(=O)c2c(C)c(CN3CCNC3=O)sc21)C(F)(F)F [Example 53, 3-Ethyl-5-methyl-6-[(2-oxoimidazolidin-1-yl)methyl]-1-[2-(trifluoromethyl)prop-2-en-1-yl]thieno[2,3-d]pyrimidine-2,4(1H,3H)-dione] | 14
7 | COCCn1c(=O)c2c(C)c(CN3CCNC3=NC(=O)OC)sc2n(CCC(F)(F)F)c1=O [Example 385, Methyl [1-{[3-(2-methoxyethyl)-5-methyl-2,4-dioxo-1-(3,3,3-trifluoropropyl)-1,2,3,4-tetrahydrothieno[2,3-d]pyrimidin-6-yl]methyl}imidazolidin-2-ylidene]carbamate] | 4.7
8 | Cc1c(Cn2nc[nH]c2=O)sc2c1c(=O)n(CC(F)(F)F)c(=O)n2CC1CCCO1 (racemic) [Example 434, 5-Methyl-6-[(5-oxo-4,5-dihydro-H-1,2,4-triazol-1-yl)methyl]-1-(tetrahydrofuran-2-ylmethyl)-3-(2,2,2-trifluoroethyl)thieno[2,3-d]pyrimidine-2,4(1H,3H)-dione] | 82
9 | CCn1c(=O)c2c(C)c(CN3CCN(C(C)C)C3=S)sc2n(CCOC)c1=O [Example 174, 3-Ethyl-6-[(3-isopropyl-2-thioxoimidazolidin-1-yl)methyl]-1-(2-methoxyethyl)-5-methylthieno[2,3-d]pyrimidine-2,4(1H,3H)-dione] | 49
10 | COCCn1c(=O)n(CCc2ccccc2)c(=O)c2c(C(F)(F)F)c(CN3CCCS3(=O)=O)sc21 [Example 18, 6-[(1,1-Dioxido-1,2-thiazolidin-2-yl)methyl]-1-(2-methoxyethyl)-3-(2-phenylethyl)-5-(trifluoromethyl)thieno[2,3-d]pyrimidine-2,4(1H,3H)-dione] | 14
11 | COC(C)Cn1c(=O)c2c(C)c(CN3CCNC3=O)sc2n(CCC(F)(F)F)c1=O (racemic) [Example 412, 3-(2-Methoxypropyl)-5-methyl-6-[(2-oxoimidazolidin-1-yl)methyl]-1-(3,3,3-trifluoropropyl)thieno[2,3-d]pyrimidine-2,4(1H,3H)-dione] | 5.4

The remaining lines, values ahead:

Row | IC50 [nM] | SMILES
12 | 29 | Cc1c(CN2CCNC2=O)sc2c1c(=O)n(CC(C)(C)C)c(=O)n2CC1CCCO1 (racemic) [Example 406, 3-(2,2-Dimethylpropyl)-5-methyl-6-[(2-oxoimidazolidin-1-yl)methyl]-1-(tetrahydrofuran-2-ylmethyl)thieno[2,3-d]pyrimidine-2,4(1H,3H)-dione]
13 | 12 | COCCn1c(=O)n(CC(C)(C)C)c(=O)c2c(C)c(CN3CCNC3=NC#N)sc21 [Example 445, [1-{[3-(2,2-Dimethylpropyl)-1-(2-methoxyethyl)-5-methyl-2,4-dioxo-1,2,3,4-tetrahydrothieno[2,3-d]pyrimidin-6-yl]methyl}imidazolidin-2-ylidene]cyanamide]
14 | 3.1 | Cc1c(CN2CCNC2=NC#N)sc2c1c(=O)n(C(C)C)c(=O)n2CC1CCO1 (racemic) [Example 264, [1-{[3-Isopropyl-5-methyl-1-(oxetan-2-ylmethyl)-2,4-dioxo-1,2,3,4-tetrahydrothieno[2,3-d]pyrimidin-6-yl]methyl}imidazolidin-2-ylidene]cyanamide]
15 | 4.8 | CCn1c(=O)c2c(C)c(CN3CCNC3=S)sc2n(CC2CCCO2)c1=O (single isomer, unassigned) [Example 140, 3-Ethyl-5-methyl-1-(tetrahydrofuran-2-ylmethyl)-6-[(2-thioxoimidazolidin-1-yl)methyl]thieno[2,3-d]pyrimidine-2,4(1H,3H)-dione]
16 | 17 | Cc1c(CN2CCNC2=O)sc2c1c(=O)n(CC(F)(F)F)c(=O)n2CC1CCCO1 (single isomer, unassigned) [Example 211, 5-Methyl-6-[(2-oxoimidazolidin-1-yl)methyl]-1-(tetrahydrofuran-2-ylmethyl)-3-(2,2,2-trifluoroethyl)thieno[2,3-d]pyrimidine-2,4(1H,3H)-dione]
17 | 16 | COCCn1c(=O)n(CC(C)(C)C)c(=O)c2c(C)c(CN3CCNC3=NC(=O)OC)sc21 [Example 462, Methyl [1-{[3-(2,2-dimethylpropyl)-1-(2-methoxyethyl)-5-methyl-2,4-dioxo-1,2,3,4-tetrahydrothieno[2,3-d]pyrimidin-6-yl]methyl}imidazolidin-2-ylidene]carbamate]
18 | 9.1 | Cc1c(CN2CCNC2=O)sc2c1c(=O)n(CC(F)(F)F)c(=O)n2CC1CCCO1 (single isomer, unassigned) [Example 210, 5-Methyl-6-[(2-oxoimidazolidin-1-yl)methyl]-1-(tetrahydrofuran-2-ylmethyl)-3-(2,2,2-trifluoroethyl)thieno[2,3-d]pyrimidine-2,4(1H,3H)-dione]
19 | 320 | COCCn1c(=O)c2c(C)c(CN3CCNC(=O)C3=O)sc2n(CC2CCO2)c1=O (racemic) [Example 400, 6-[(2,3-Dioxopiperazin-1-yl)methyl]-3-(2-methoxyethyl)-5-methyl-1-(oxetan-2-ylmethyl)thieno[2,3-d]pyrimidine-2,4(1H,3H)-dione]
20 | 13 | CCn1c(=O)c2c(C)c(CN3CCNC3=S)sc2n(CC2CCCCO2)c1=O (single isomer, unassigned) [Example 142, 3-Ethyl-5-methyl-1-(tetrahydro-2H-pyran-2-ylmethyl)-6-[(2-thioxoimidazolidin-1-yl)methyl]thieno[2,3-d]pyrimidine-2,4(1H,3H)-dione]
21 | 400 | COCCn1c(=O)c2c(C)c(Cn3[nH]ccc3=O)sc2n(CC2CCCO2)c1=O (single isomer, unassigned) [Example 290, 3-(2-Methoxyethyl)-5-methyl-6-[(5-oxo-2,5-dihydro-1H-pyrazol-1-yl)methyl]-1-(tetrahydrofuran-2-ylmethyl)thieno[2,3-d]pyrimidine-2,4(1H,3H)-dione]
